In patent US12594349B2, “Compositions and methods for the targeting of PCSK9” (Scribe Therapeutics Inc., priority 2022, dated 2026):

System: human PCSK9 locus
Test: Secreted PCSK9 by ELISA in Huh7 cells transfected with mRNA and gRNA
Format: cell-based
Conditions: for Secreted PCSK9 / Percent reduction in PCSK9 secretion / Average percent reduction in PCSK9 secretion: Huh7 cells; for Secreted PCSK9: 6 days post-transfection, normalized to total cell count; for Percent reduction in PCSK9 secretion / Average percent reduction in PCSK9 secretion: LTRP5-ADD-ZIM3 mRNA; for Percent reduction in PCSK9 secretion: day 6, relative to non-targeting gRNA control; for Average percent reduction in PCSK9 secretion: day 6, averaged from the two doses
Protocol: To assess PCSK9 secretion, seeded Huh7 cells were transfected with mRNA encoding a catalytically-active CasX 676, dXR1, or LTRP5-ADD-ZIM3 and a gRNA with scaffold 316 and spacer targeting either the B2M or PCSK9 locus. Media supernatant was harvested at 6, 18, 36, and 87 days post-transfection to assess level of PCSK9 secretion by ELISA. Levels of PCSK9 secretion were normalized to total cell count. As an additional control, PCSK9 secretion was also measured in the media supernatant harvested from wells containing untreated, naïve cells.
The following three human hepatocyte cancer cell lines were used in this experiment: HepG2 cells, Hep3B cells, and Huh7 cells. ˜15,000 cells of each cell line were seeded per well; the next day, seeded cells were transfected with mRNA encoding a catalytically-active CasX 676, dXR1, or LTRP5-ADD-ZIM3 and a gRNA with scaffold 316 and spacer targeting either the B2M or PCSK9 locus (see Table 23 for specific spacers and sequences). Media supernatant was harvested at 4 days post-transfection to assess level of PCSK9 secretion by ELISA, and levels of PCSK9 secretion were normalized to total cell count and illustrated in FIGS. 11A-11C. Culturing of treated Huh7 cells continued, and media supernatant was harvested at 14 and 27 days post-transfection for measuring PCSK9 secretion by ELISA. As an additional experimental control, PCSK9 secretion was also measured in the media supernatant harvested from wells containing untreated, naïve cells.
To assess PCSK9 secretion, seeded Huh7 cells were co-transfected with mRNA encoding for LTRP5-ADD-ZIM3 and a gRNA with scaffold 316 and spacer targeting the PCSK9 locus using Lipofectamine™ 3000. Two doses of total RNA input at a 2:1 mass ratio of mRNA to gRNA were used for screening: 50 ng mRNA:25 ng gRNA and 25 ng mRNA:12.5 ng gRNA. Media supernatant was harvested at 6 days post-transfection to assess level of PCSK9 secretion by ELISA (Table 74). Levels of PCSK9 secretion were normalized to total cell count. As an additional control, PCSK9 secretion was also measured in the media supernatant harvested from cells transfected with mRNA encoding for mScarlet.

[1] = LTRP5-ADD-ZIM3 mRNA + gRNA scaffold 316, 25 ng mRNA:12.5 ng gRNA
[2] = LTRP5-ADD-ZIM3 mRNA + gRNA scaffold 316, 50 ng mRNA:25 ng gRNA

| Substance | Secreted PCSK9 [1] [ng/mL] | Secreted PCSK9 [2] [ng/mL] | Percent reduction in PCSK9 secretion (25 ng mRNA:12.5 ng gRNA) [%] | Percent reduction in PCSK9 secretion (50 ng mRNA:25 ng gRNA) [%] | Average percent reduction in PCSK9 secretion [%] | average reduction in secreted PCSK9 levels (Huh7, LTRP5-ADD-ZIM3 mRNA + gRNA scaffold 316 v1, 6 days post-transfection, averaged from two doses, relative to non-targeting gRNA) [%] |
| --- | --- | --- | --- | --- | --- | --- |
| TG-06-126 (guide CCUUUUCAUCCUCCUGCCUG; listed as RNA, chemistry not given here) | 44.82 | 23.48 | 37.09 | 71.46 | 54.27 | – |
| TG-06-127 (guide UCCUCCUGCCUGGUACACAA; listed as RNA, chemistry not given here) | 49.1 | 22.57 | 31.08 | 72.56 | 51.82 | – |
| TG-06-128 (guide AGAAAUCAACUGGACAAGCA; listed as RNA, chemistry not given here) | 62.29 | 42.21 | 12.57 | 48.7 | 30.63 | – |
| TG-06-129 (guide UUUUACACACCAUGUUCAAG; listed as RNA, chemistry not given here) | 90.82 | 59.93 | 27.47 | 27.16 | 0.16 | – |
| TG-06-131 (guide UGAACAUGGUGUGUAAAAGG; listed as RNA, chemistry not given here) | 57.89 | 28.4 | 18.74 | 65.48 | 42.11 | – |
| TG-06-132 (guide AGAAGAUUCAAUUUGCAAAG; listed as RNA, chemistry not given here) | 75.01 | 56.68 | 5.29 | 31.11 | 12.91 | – |
| TG-06-134 (guide GAAUUCUAUGGUAGGCACAA; listed as RNA, chemistry not given here) | 57.45 | 43.79 | 19.37 | 46.77 | 33.07 | – |
| TG-06-135 (guide GGAAAGCUGAGCUUGUGCCU; listed as RNA, chemistry not given here) | 44.59 | 25.66 | 37.42 | 68.82 | 53.12 | – |
| TG-06-139 (guide AGGAGCAGCUAGUUGGUAAG; listed as RNA, chemistry not given here) | 25.45 | 15.03 | 64.28 | 81.73 | 73.01 | – |
| TG-06-140 (guide AAACUUAGCCUGGACCCCCU; listed as RNA, chemistry not given here) | 59.94 | 61.68 | 15.87 | 25.04 | 20.45 | – |
| TG-06-141 (guide ACUGGCCUUAACCUGGCAGC; listed as RNA, chemistry not given here) | 12.58 | 13.86 | 82.34 | 83.16 | 82.75 | 82.75 |
| TG-06-142 (guide UUCCACUGGCCUUAACCUGG; listed as RNA, chemistry not given here) | 27.27 | 30.87 | 61.73 | 62.48 | 62.1 | – |
| TG-06-143 (guide GAAUCAAUCCUACUGUGGAC; listed as RNA, chemistry not given here) | 22.33 | 38.69 | 68.66 | 52.97 | 60.81 | – |
| TG-06-144 (guide GUGGGCAGCGAGGAGUCCAC; listed as RNA, chemistry not given here) | 29 | 23.42 | 59.29 | 71.53 | 65.41 | – |
| TG-06-145 (guide UGGGUCCACCUUGUCUCCUG; listed as RNA, chemistry not given here) | 18.54 | 15.8 | 73.98 | 80.8 | 77.39 | – |
| TG-06-146 (guide GAAGUCUCACUGGUCAGCAG; listed as RNA, chemistry not given here) | 20.34 | 40.84 | 71.45 | 50.36 | 60.9 | – |
| TG-06-147 (guide GUGUUUCCUGGGUCCACCUU; listed as RNA, chemistry not given here) | 37.43 | 53.6 | 47.46 | 34.85 | 41.15 | – |
| TG-06-148 (guide GCCGGGCCCACCUUUUCAGU; listed as RNA, chemistry not given here) | 44.77 | 71.46 | 37.16 | 13.15 | 25.15 | – |
| TG-06-149 (guide AGCCCAGUUAGGAUUUGGGA; listed as RNA, chemistry not given here) | 38.33 | 21.18 | 46.21 | 74.26 | 60.23 | – |
| TG-06-150 (guide UCCCUCUGCGCGUAAUCUGA; listed as RNA, chemistry not given here) | 39.59 | 18.33 | 44.42 | 77.73 | 61.08 | – |
| TG-06-151 (guide CUCUGCGCGUAAUCUGACGC; listed as RNA, chemistry not given here) | 66.42 | 53.44 | 6.77 | 35.05 | 20.91 | – |
| TG-06-152 (guide GCCUCGCCCUCCCCAAACAG; listed as RNA, chemistry not given here) | 57.43 | 36.95 | 19.39 | 55.09 | 37.24 | – |
| TG-06-153 (guide GUUAAUGUUUAAUCAGAUAG; listed as RNA, chemistry not given here) | 86.58 | 73.23 | 21.52 | 10.99 | 5.27 | – |
| TG-06-155 (guide GCAGCGACGUCGAGGCGCUC; listed as RNA, chemistry not given here) | 56.36 | 29.45 | 20.89 | 64.21 | 42.55 | – |
